Measured values taken from US6573293B2, “Pyrrole substituted 2-indolinone protein kinase inhibitors” (Sugen, Inc., priority 2000, dated 2003).

Columns and labels:
GST-Flk1 = target: T1, GST-Flk1 (Mus musculus, UniProt P35918); assay: GST-FLK-1 bioassay (bio flkGST); type: biochemical
T1 construct: GST-Flk1cd purified from sf9 recombinant baculovirus transformation; host or cells: Sf9 (baculovirus)

EGFR [1] = target: T2, EGFR (Homo sapiens, UniProt P00533); assay: EGFR bioassay (bio EGF); type: biochemical
T2 construct: A431 cell lysate (SUGEN, Inc.); host or cells: A431

PDGFR-β = target: T3, PDGFR-β (Homo sapiens, UniProt P09619); assay: PDGFR bioassay (bio PDGF); type: biochemical
T3 construct: host or cells: NIH 3T3

[2] = target: T4, HA epitope-tagged full length pyk2 (FL.pyk2-HA) (Homo sapiens, UniProt Q14289); assay: PYK2 bioassay; type: biochemical; conditions: read-out: bio pyk2 IC50
T4 construct: host or cells: Sf9

HER-2 kinase = target: T5, HER-2 kinase (Homo sapiens, UniProt P04626); assay: Cellular HER-2 kinase assay; type: cell-based; conditions: read-out: Her2 Kinase IC50
T5 construct: Use EGFr/HER-2 chimera/3T3-C7 cell line for this assay; It is expressed in mouse NIH 3T3 clone C7 cells; P00533 (Epidermal growth factor receptor)

GST-FGFR1 = GST-FGFR1 (Homo sapiens, UniProt P11362); assay: FGFR1 bioassay (bio PGFR1); type: biochemical
human cdk2/cyclin A = target: T6, human cdk2/cyclin A (Homo sapiens, UniProt P24941); assay: CDK2/cyclin A scintillation proximity assay (cdk2spa); type: biochemical; conditions: read-out: cdk2spa C50
T6 construct: host or cells: Sf9

EGFR [3] = target: T2, EGFR; assay: cell EGF assay; type: cell-based
Description: Several of the assays described herein are performed in an ELISA (Enzyme-Linked Immunosorbent Sandwich Assay) format (Voller, et al., 1980, “Enzyme-Linked Immunosorbent Assay,” Manual of Clinical Immunology, 2d ed., Rose and Friedman, Am. Soc. Of Microbiology, Washington, D.C., pp. 359-371). The general procedure is as follows: a compound is introduced to cells expressing the test kinase, either naturally or recombinantly, for a selected period of time after which, if the test kinase is a receptor, a ligand known to activate the receptor is added. The cells are lysed and the lysate is transferred to the wells of an ELISA plate previously coated with a specific antibody recognizing the substrate of the enzymatic phosphorylation reaction. Non-substrate components of the cell lysate are washed away and the amount of phosphorylation on the substrate is detected with an antibody specifically recognizing phosphotyrosine compared with control cells that were not contacted with a test compound.

T1 sequence (P35918 784-1345 limits assumed): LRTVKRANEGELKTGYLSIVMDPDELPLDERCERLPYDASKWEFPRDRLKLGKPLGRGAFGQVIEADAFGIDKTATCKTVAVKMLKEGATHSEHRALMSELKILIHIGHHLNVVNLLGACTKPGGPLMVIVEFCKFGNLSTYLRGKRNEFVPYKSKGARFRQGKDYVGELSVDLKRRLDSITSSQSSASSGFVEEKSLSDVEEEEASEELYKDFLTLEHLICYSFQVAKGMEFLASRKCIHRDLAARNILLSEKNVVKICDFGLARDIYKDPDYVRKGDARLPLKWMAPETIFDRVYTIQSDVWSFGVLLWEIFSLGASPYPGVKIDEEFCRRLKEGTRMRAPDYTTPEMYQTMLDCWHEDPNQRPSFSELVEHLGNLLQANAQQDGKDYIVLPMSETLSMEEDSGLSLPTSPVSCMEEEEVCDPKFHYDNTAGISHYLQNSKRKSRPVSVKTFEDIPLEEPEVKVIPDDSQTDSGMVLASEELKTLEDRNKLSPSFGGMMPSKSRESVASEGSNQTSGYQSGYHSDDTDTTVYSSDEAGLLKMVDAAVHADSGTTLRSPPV
T5 sequence (P04626 720-987 limits assumed): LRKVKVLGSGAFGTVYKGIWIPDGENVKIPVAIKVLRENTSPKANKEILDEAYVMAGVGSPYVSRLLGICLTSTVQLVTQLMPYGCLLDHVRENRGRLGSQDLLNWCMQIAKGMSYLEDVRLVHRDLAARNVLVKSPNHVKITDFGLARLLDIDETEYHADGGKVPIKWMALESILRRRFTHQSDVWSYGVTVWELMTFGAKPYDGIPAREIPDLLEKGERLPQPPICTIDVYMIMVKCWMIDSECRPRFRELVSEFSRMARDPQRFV
T3 sequence (P09619 33-1106): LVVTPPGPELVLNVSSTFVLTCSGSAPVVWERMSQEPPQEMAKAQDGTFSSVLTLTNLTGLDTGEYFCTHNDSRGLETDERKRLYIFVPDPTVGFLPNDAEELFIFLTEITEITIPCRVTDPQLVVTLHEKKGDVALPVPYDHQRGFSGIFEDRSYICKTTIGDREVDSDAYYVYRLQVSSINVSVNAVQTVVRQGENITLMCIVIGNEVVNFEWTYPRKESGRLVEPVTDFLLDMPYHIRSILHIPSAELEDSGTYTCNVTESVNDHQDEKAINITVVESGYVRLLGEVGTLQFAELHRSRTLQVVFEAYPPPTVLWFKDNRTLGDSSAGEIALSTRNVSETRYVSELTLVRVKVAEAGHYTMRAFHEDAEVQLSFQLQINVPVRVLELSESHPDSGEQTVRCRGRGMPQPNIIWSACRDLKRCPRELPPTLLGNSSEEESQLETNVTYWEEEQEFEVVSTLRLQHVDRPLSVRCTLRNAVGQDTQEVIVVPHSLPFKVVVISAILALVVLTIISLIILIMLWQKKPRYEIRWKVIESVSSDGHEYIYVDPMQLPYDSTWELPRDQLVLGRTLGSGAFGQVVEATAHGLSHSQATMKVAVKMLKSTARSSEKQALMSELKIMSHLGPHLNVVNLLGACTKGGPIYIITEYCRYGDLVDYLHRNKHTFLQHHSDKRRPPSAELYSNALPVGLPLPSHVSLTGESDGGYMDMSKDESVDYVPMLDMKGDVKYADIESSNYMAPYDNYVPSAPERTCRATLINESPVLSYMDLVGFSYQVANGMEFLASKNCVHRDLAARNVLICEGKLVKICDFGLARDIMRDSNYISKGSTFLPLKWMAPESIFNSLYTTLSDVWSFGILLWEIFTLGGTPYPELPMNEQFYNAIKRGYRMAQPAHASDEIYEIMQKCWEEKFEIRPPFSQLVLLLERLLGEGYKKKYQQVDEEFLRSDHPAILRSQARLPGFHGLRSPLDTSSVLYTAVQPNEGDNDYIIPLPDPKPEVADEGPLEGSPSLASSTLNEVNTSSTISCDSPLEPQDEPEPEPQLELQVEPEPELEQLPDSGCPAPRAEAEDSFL
T4 sequence (Q14289 whole entry): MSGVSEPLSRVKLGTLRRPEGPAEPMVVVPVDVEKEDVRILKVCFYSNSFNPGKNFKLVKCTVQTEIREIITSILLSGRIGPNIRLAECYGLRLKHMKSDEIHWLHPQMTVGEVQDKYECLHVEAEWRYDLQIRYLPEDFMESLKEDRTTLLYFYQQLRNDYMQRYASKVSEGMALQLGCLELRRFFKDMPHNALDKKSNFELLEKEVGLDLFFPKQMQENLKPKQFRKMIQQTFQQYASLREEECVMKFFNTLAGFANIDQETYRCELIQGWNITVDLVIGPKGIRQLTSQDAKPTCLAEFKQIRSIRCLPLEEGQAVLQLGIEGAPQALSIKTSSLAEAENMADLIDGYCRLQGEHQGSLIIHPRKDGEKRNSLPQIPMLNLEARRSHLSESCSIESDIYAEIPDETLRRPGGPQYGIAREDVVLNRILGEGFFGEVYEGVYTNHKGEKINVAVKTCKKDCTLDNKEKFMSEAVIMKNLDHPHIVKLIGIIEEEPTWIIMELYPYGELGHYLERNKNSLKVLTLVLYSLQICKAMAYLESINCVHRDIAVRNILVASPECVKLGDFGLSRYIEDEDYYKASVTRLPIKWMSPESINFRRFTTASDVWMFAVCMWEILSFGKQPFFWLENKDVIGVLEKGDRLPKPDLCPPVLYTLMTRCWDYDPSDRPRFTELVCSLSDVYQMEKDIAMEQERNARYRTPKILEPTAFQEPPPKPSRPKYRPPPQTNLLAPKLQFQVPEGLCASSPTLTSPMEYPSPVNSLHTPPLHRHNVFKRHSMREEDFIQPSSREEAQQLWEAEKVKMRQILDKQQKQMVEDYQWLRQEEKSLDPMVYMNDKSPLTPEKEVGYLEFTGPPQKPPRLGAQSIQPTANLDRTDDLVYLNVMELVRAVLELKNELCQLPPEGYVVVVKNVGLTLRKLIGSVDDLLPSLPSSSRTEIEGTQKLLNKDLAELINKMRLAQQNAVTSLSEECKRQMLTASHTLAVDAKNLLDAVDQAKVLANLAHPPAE
GST-FGFR1, sequence (P11362 22-822): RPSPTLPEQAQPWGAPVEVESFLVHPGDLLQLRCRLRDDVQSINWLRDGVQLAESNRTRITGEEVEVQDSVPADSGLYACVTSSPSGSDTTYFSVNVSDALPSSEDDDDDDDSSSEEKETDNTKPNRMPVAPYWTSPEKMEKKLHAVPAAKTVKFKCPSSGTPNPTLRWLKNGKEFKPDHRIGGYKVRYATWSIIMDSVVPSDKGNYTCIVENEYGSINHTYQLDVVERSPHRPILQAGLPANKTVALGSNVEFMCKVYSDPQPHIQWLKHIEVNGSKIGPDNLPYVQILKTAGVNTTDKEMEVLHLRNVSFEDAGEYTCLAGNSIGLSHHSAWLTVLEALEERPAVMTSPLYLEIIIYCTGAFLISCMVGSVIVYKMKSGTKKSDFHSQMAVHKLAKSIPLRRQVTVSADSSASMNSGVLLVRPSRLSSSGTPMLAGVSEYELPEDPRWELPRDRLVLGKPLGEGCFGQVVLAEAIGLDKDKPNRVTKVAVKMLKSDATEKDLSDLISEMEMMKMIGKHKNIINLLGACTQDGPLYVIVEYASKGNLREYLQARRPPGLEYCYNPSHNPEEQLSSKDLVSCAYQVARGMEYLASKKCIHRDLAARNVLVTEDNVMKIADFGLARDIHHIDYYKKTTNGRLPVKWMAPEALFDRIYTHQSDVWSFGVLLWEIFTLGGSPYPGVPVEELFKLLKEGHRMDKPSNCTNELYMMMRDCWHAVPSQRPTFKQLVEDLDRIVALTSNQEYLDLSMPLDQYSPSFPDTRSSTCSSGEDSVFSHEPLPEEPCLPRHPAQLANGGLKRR
T2 sequence (P00533 25-1210): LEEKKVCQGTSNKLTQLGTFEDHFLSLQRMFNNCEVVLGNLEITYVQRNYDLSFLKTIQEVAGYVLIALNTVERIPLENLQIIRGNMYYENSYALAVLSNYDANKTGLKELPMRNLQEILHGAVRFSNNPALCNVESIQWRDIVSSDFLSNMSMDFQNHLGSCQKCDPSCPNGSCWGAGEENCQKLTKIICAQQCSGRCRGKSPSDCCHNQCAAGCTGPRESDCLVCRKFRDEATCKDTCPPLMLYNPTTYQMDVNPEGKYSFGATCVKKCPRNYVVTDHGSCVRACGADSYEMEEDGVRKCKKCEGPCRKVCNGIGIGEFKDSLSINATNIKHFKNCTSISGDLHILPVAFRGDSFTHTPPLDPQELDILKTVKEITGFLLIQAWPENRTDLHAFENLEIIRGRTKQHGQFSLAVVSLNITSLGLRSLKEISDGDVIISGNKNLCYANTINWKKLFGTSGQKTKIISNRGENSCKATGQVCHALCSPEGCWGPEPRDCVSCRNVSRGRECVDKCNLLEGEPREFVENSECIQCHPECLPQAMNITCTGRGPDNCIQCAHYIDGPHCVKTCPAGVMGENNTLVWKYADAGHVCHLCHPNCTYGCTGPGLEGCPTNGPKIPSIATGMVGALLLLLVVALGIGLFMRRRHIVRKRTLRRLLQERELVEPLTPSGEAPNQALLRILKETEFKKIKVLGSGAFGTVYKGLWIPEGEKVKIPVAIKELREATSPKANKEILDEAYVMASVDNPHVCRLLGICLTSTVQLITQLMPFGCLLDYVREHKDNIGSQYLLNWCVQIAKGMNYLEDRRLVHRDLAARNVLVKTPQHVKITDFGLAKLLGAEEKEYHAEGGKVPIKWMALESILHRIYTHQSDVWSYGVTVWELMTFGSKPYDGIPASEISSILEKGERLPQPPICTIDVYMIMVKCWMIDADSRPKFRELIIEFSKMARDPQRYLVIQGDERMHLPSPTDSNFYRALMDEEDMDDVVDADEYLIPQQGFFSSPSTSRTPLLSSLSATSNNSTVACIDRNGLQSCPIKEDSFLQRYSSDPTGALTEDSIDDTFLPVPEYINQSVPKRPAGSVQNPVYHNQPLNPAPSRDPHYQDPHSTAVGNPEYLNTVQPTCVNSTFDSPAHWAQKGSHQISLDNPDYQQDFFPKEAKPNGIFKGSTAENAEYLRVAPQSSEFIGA

SMILES | IC50 (GST-Flk1) [µM] | IC50 (EGFR [1]) [µM] | IC50 (PDGFR-β) [µM] | IC50 [2] [µM] | IC50 (HER-2 kinase) [µM] | IC50 (GST-FGFR1) [µM] | IC50 (human cdk2/cyclin A) [µM] | IC50 (EGFR [3]) [µM]
Cc1[nH]c(/C=C2\C(=O)Nc3ccc(S(=O)(=O)Nc4cccc(Cl)c4)cc32)c(C)c1C(=O)NCCN1CCCC1 [Example 83, 5-[5-(3-Chloro-phenylsulfamoyl)-2-oxo-1,2-dihydroindol-3-ylidenemethyl]-2,4-dimethyl-1H-pyrrole-3-carboxylic acid (2-pyrrolidin-1-yl-ethyl)amide] | 0.34 | 2.18 | 9.46 | 0.008 | 86.9 | 0.41 | – | –
Cc1[nH]c(/C=C2\C(=O)Nc3cccc(CCO)c32)c(C)c1C(=O)N1CCN(C)CC1 [Example 85, 3-[3,5-Dimethyl-4-(4-methyl-piperazine-1-carbonyl)-1H-pyrrol-2-ylmethylene]-4-(2-hydroxy-ethyl)-1,3-dihydroindol-2-one] | 0.2 | > 100 | 2.59 | – | 3.76 | 0.8 | – | –
CCOC(=O)CNC(=O)c1c[nH]c(/C=C2\C(=O)Nc3ccc(S(=O)(=O)NC)cc32)c1C [Example 117, {[4-Methyl-5-(5-methylsulfamoyl-2-oxo-1,2-dihydro-indol-3-ylidenemethyl)-1H-pyrrole-3-carbonyl]-amino}-acetic acid ethyl ester] | 0.91 | – | 12.9 | – | – | – | 0.006 | –
Cc1cc(C(=O)O)[nH]c1/C=C1\C(=O)Nc2ccc(Cl)cc21 [Example 5, 5-(5-Chloro-2-oxo-1,2-dihydroindol-3-ylidenemethyl)-4-methyl-1H-pyrrole-2-carboxylic acid] | 8.3 | > 100 | > 100 | – | > 100 | 16.1 | – | > 100
COC(=O)c1cc(C)c(/C=C2\C(=O)Nc3ccccc32)[nH]1 [Example 3, 4-Methyl-5-(2-oxo-1,2-dihydroindol-3-ylidenemethyl)-1H-pyrrole-2-carboxylic acid methyl ester] | 9.85 | > 100 | > 100 | > 100 | – | 9.62 | – | > 100
Cc1cc(C(=O)O)[nH]c1/C=C1\C(=O)Nc2ccccc21 [Example 1, 4-Methyl-5-(2-oxo-1,2-dihydroindol-3-ylidenemethyl)-1H-pyrrole-2-carboxylic acid] | 57.7 | > 100 | > 100 | > 100 | – | 15.2 | – | > 100
Cc1[nH]c(/C=C2\C(=O)Nc3ccc(Br)cc32)c(C)c1C(=O)NCCN(C)C [Example 48, 5-(5-Bromo-2-oxo-1,2-dihydroindol-3-ylidenemethyl)-2,4-dimethyl-1H-pyrrole-3-carboxylic acid (2-dimethylamino-ethyl)amide] | 0.006 | 17.9 | < 0.78 | 0.09 | 7.93 | 0.3 | – | 21.6
CCOC(=O)CNC(=O)c1c[nH]c(C=C2C(=O)Nc3ccc(S(=O)(=O)NC)c(C)c32)c1C [Example 116, {[4-Methyl-5-(4-methyl-5-methylsulfamoyl-2-oxo-1,2-dihydro-indol-3-ylidenemethyl)-1H-pyrrole-3-carbonyl]-amino}-acetic acid ethyl ester] | – | > 100 | – | – | – | – | < 0.0005 | –
CNS(=O)(=O)c1ccc2c(c1)C(=Cc1[nH]cc(C(=O)O)c1C)C(=O)N2 [Example 115, 4-Methyl-5-(5-methylsulfamoyl-2-oxo-1,2-dihydro-indol-3-ylidenemethyl)-1H-pyrrole-3-carboxylic acid] | – | > 100 | – | – | – | – | 0.006 | –
CCOC(=O)c1cc(C)c(/C=C2\C(=O)Nc3ccc(Cl)cc32)[nH]1 [Example 4, 5-(5-Chloro-2-oxo-1,2-dihydroindol-3-ylidenemethyl)-4-methyl-1H-pyrrole-2-carboxlyc acid ethyl ester] | 3.57 | > 100 | > 100 | – | > 100 | > 20 | – | > 100
Cc1[nH]c(/C=C2\C(=O)Nc3ccc(S(=O)(=O)N(C)C)cc32)c(C)c1C(=O)NCCN1CCCC1 [Example 82, 5-(5-Dimethylsulfamoyl-2-oxo-1,2-dihydroindol-3-ylidenemethyl)-2,4-dimethyl-1H-pyrrole-3-carboxylic acid (2-pyrrolidin-1-yl-ethyl)amide] | 2.03 | – | 6.88 | 0.31 | – | 7.69 | – | –
CNS(=O)(=O)c1ccc2c(c1)C(=Cc1[nH]cc(C(=O)NCC(=O)O)c1C)C(=O)N2 [Example 118, {[4-Methyl-5-(5-methylsulfamoyl-2-oxo-1,2-dihydro-indol-3-ylidenemethyl)-1H-pyrrole-3-carbonyl]-amino}-acetic acid] | – | > 100 | – | – | – | – | 0.002 | –
CCN(CC)CCNC(=O)c1c(C)[nH]c(/C=C2\C(=O)Nc3ccc(Br)cc32)c1C [Example 51, 5-(5-Bromo-2-oxo-1,2-dihydroindol-3-ylidenemethyl)-2,4-dimethyl-1H-pyrrole-3-carboxylic acid (2-diethylaminoethyl)amide] | – | 18.1 | 0.01 | 0.35 | 23.2 | 1.66 | 16.7 | 21.6
Cc1[nH]c(/C=C2\C(=O)Nc3ccc(S(=O)(=O)Nc4ccccc4)cc32)c(C)c1C(=O)N1CCN(C)CC1 [Example 86, 3-[3,5-Dimethyl-4-(4-methyl-piperazine-1-carbonyl)-1H-pyrrol-2-ylmethylene]-2-oxo-2,3-dihydro-1H-indole-5-sulfonic acid phenylamide] | 1.45 | 41.8 | 19.6 | 3.58 | – | 1.3 | – | –
CCN(CC)CCNC(=O)c1c(C)[nH]c(/C=C2\C(=O)Nc3ccc(S(=O)(=O)Nc4cccc(Cl)c4)cc32)c1C [Example 88, 5-[5-(3-Chloro-phenylsulfamoyl)-2-oxo-1,2-dihydroindol-3-ylidenemethyl]-2,4-dimethyl-1H-pyrrole-3-carboxylic acid (2-diethylaminoethyl)amide] | 0.35 | 2.36 | 8.06 | 0.09 | > 100 | 1.18 | – | –
CCN(CC)CCCNC(=O)c1c(C)[nH]c(/C=C2\C(=O)Nc3ccc(Br)cc32)c1-c1ccccc1 [Example 47, 5-(5-Bromo-2-oxo-1,2-dihydroindol-3-ylidenemethyl)-2-methyl-4-phenyl-1H-pyrrole-3-carboxylic acid (3-diethylaminopropyl)amide] | 0.08 | 11.4 | 0.06 | 1.05 | 8.4 | 1.56 | – | 41.5
CCN(CC)CCNC(=O)c1[nH]c(/C=C2\C(=O)Nc3ccc(Br)cc32)c2c1CCCC2 [Example 17, 3-(5-Bromo-2-oxo-1,2-dihydroindol-3-ylidenemethyl)-4,5,6,7-tetrahydro-2H-isoindole-1-carboxylic acid (2-diethylaminoethyl)amide] | 8.25 | 0.83 | 94.4 | – | 15.9 | 2.47 | > 10 | 11.5
Cc1[nH]c(/C=C2\C(=O)Nc3ccc(S(=O)(=O)Nc4cccnc4)cc32)c(C)c1C(=O)NCCN1CCCC1 [Example 84, 2,4-Dimethyl-5-[2-oxo-5-(pyridin-3-ylsulfamoyl)-1,2-dihydroindol-3-ylidenemethyl]-1H-pyrrole-3-carboxylic acid (2-pyrrolidin-1-yl-ethyl)amide] | 1.38 | 67.2 | 12.5 | 0.006 | 5.86 | – | – | –
CCN(CC)CCNC(=O)c1c(C)[nH]c(/C=C2\C(=O)Nc3ccc(S(=O)(=O)N(C)C)cc32)c1C [Example 87, 5-(5-Dimethylsulfamoyl-2-oxo-1,2-dihydroindol-3-ylidenemethyl)-2,4-dimethyl-1H-pyrrole-3-carboxylic acid (2-diethylaminoethyl)amide] | 3.27 | – | 6.46 | 0.17 | 9.1 | 7.56 | – | –
CNS(=O)(=O)c1ccc2c(c1)/C(=C/c1[nH]cc(C(=O)N3CCCCC3)c1C)C(=O)N2 [Example 119, 3-[3-Methyl-4-(piperidine-1-carbonyl)-1H-pyrrol-2-ylmethylene]-2-oxo-2,3-dihydro-1H-indole-5-sulfonic acid methylamide] | 1.38 | > 100 | 61.6 | – | > 100 | – | < 0.0005 | –
